In ChEMBL document CHEMBL4507258 (2021):

Experiments:
[1] = test system: Tyrosine-protein kinase ABL1 (Homo sapiens), P00519 [H396P]; conditions: Compound concentration 1000.0 nM
[2] = molecular target: Activin receptor type-1-like (Homo sapiens) (UniProt P37023); conditions: Compound concentration 1000.0 nM
[3] = test system: ALK tyrosine kinase receptor (Homo sapiens), Q9UM73 [C1156Y]; conditions: Compound concentration 1000.0 nM
[4] = molecular target: Bone morphogenetic protein receptor type-2 (Homo sapiens) (UniProt Q13873); conditions: Compound concentration 1000.0 nM
[5] = molecular target: Protein-tyrosine kinase 6 (Homo sapiens) (UniProt Q13882); conditions: Compound concentration 1000.0 nM
[6] = molecular target: Calcium/calmodulin-dependent protein kinase type 1 (Homo sapiens) (UniProt Q14012); conditions: Compound concentration 1000.0 nM
[7] = molecular target: Calcium/calmodulin-dependent protein kinase kinase 2 (Homo sapiens) (UniProt Q96RR4); conditions: Compound concentration 1000.0 nM
[8] = molecular target: Cyclin-dependent kinase 11A (Homo sapiens) (UniProt Q9UQ88); conditions: Compound concentration 1000.0 nM
[9] = molecular target: Serine/threonine-protein kinase Chk1 (Homo sapiens) (UniProt O14757); conditions: Compound concentration 1000.0 nM
[10] = molecular target: Macrophage colony-stimulating factor 1 receptor (Homo sapiens) (UniProt P07333); conditions: Compound concentration 1000.0 nM
[11] = molecular target: Death-associated protein kinase 1 (Homo sapiens) (UniProt P53355); conditions: Compound concentration 1000.0 nM
[12] = molecular target: Mitogen-activated protein kinase kinase kinase 12 (Homo sapiens) (UniProt Q12852); conditions: Compound concentration 1000.0 nM
[13] = test system: Epidermal growth factor receptor (Homo sapiens), P00533 [UNDEFINED MUTATION]; conditions: Compound concentration 1000.0 nM
[14] = molecular target: Focal adhesion kinase 1 (Homo sapiens) (UniProt Q05397); conditions: Compound concentration 1000.0 nM
[15] = test system: Receptor-type tyrosine-protein kinase FLT3 (Homo sapiens), P36888 [UNDEFINED MUTATION]; conditions: Compound concentration 1000.0 nM
[16] = test system: Receptor-type tyrosine-protein kinase FLT3 (Homo sapiens), P36888 [N841I]; conditions: Compound concentration 1000.0 nM
[17] = test system: Receptor-type tyrosine-protein kinase FLT3 (Homo sapiens), P36888 [R834Q]; conditions: Compound concentration 1000.0 nM
[18] = molecular target: Glycogen synthase kinase-3 beta (Homo sapiens) (UniProt P49841); conditions: Compound concentration 1000.0 nM
[19] = test system: Mast/stem cell growth factor receptor Kit (Homo sapiens), P10721 [D816H]; conditions: Compound concentration 1000.0 nM
[20] = test system: Mast/stem cell growth factor receptor Kit (Homo sapiens), P10721 [L576P]; conditions: Compound concentration 1000.0 nM
[21] = molecular target: Serine/threonine-protein kinase LATS1 (Homo sapiens) (UniProt O95835); conditions: Compound concentration 1000.0 nM
[22] = molecular target: Mitogen-activated protein kinase kinase kinase kinase 2 (Homo sapiens) (UniProt Q12851); conditions: Compound concentration 1000.0 nM
[23] = molecular target: Mitogen-activated protein kinase kinase kinase kinase 4 (Homo sapiens) (UniProt O95819); conditions: Compound concentration 1000.0 nM
[24] = molecular target: Serine/threonine-protein kinase mTOR (Homo sapiens) (UniProt P42345); conditions: Compound concentration 1000.0 nM
[25] = molecular target: Serine/threonine-protein kinase Nek3 (Homo sapiens) (UniProt P51956); conditions: Compound concentration 1000.0 nM
[26] = molecular target: Mitogen-activated protein kinase 11 (Homo sapiens) (UniProt Q15759); conditions: Compound concentration 1000.0 nM
[27] = molecular target: Cyclin-dependent kinase 15 (Homo sapiens) (UniProt Q96Q40); conditions: Compound concentration 1000.0 nM
[28] = test system: Phosphatidylinositol 4,5-bisphosphate 3-kinase catalytic subunit alpha isoform (Homo sapiens), P42336 [E545K]; conditions: Compound concentration 1000.0 nM
[29] = molecular target: Phosphatidylinositol 4,5-bisphosphate 3-kinase catalytic subunit delta isoform (Homo sapiens) (UniProt O00329); conditions: Compound concentration 1000.0 nM
[30] = molecular target: 1-phosphatidylinositol 3-phosphate 5-kinase (Homo sapiens) (UniProt Q9Y2I7); conditions: Compound concentration 1000.0 nM
[31] = molecular target: Phosphatidylinositol 4-phosphate 5-kinase type-1 gamma (Homo sapiens) (UniProt O60331); conditions: Compound concentration 1000.0 nM
[32] = molecular target: Protein-tyrosine kinase 2-beta (Homo sapiens) (UniProt Q14289); conditions: Compound concentration 1000.0 nM
[33] = test system: Proto-oncogene tyrosine-protein kinase receptor Ret (Homo sapiens), P07949 [V804L]; conditions: Compound concentration 1000.0 nM
[34] = molecular target: Dual serine/threonine and tyrosine protein kinase (Homo sapiens) (UniProt Q6XUX3); conditions: Compound concentration 1000.0 nM
[35] = molecular target: Ribosomal protein S6 kinase alpha-6 (Homo sapiens) (UniProt Q9UK32); conditions: Compound concentration 1000.0 nM
[36] = molecular target: Serine/threonine-protein kinase Sgk3 (Homo sapiens) (UniProt Q96BR1); conditions: Compound concentration 1000.0 nM
[37] = molecular target: Tyrosine-protein kinase Srms (Homo sapiens) (UniProt Q9H3Y6); conditions: Compound concentration 1000.0 nM
[38] = molecular target: Serine/threonine-protein kinase TBK1 (Homo sapiens) (UniProt Q9UHD2); conditions: Compound concentration 1000.0 nM
[39] = molecular target: TGF-beta receptor type-2 (Homo sapiens) (UniProt P37173); conditions: Compound concentration 1000.0 nM
[40] = molecular target: Dual specificity protein kinase TTK (Homo sapiens) (UniProt P33981); conditions: Compound concentration 1000.0 nM
[41] = molecular target: 5-hydroxytryptamine receptor 1B (Homo sapiens) (UniProt P28222); conditions: Compound concentration 10.0 uM
[42] = molecular target: Delta-type opioid receptor (Homo sapiens) (UniProt P41143); conditions: Compound concentration 10.0 uM
[43] = molecular target: Histamine H2 receptor (Homo sapiens) (UniProt P25021); conditions: Compound concentration 10.0 uM
[44] = molecular target: Alpha-1B adrenergic receptor (Homo sapiens) (UniProt P35368); conditions: Compound concentration 10.0 uM
[45] = molecular target: Beta-3 adrenergic receptor (Homo sapiens) (UniProt P13945); conditions: Compound concentration 10.0 uM

Chain of Mitogen-activated protein kinase kinase kinase kinase 4 (Homo sapiens) (O95819 2-1239 limits assumed): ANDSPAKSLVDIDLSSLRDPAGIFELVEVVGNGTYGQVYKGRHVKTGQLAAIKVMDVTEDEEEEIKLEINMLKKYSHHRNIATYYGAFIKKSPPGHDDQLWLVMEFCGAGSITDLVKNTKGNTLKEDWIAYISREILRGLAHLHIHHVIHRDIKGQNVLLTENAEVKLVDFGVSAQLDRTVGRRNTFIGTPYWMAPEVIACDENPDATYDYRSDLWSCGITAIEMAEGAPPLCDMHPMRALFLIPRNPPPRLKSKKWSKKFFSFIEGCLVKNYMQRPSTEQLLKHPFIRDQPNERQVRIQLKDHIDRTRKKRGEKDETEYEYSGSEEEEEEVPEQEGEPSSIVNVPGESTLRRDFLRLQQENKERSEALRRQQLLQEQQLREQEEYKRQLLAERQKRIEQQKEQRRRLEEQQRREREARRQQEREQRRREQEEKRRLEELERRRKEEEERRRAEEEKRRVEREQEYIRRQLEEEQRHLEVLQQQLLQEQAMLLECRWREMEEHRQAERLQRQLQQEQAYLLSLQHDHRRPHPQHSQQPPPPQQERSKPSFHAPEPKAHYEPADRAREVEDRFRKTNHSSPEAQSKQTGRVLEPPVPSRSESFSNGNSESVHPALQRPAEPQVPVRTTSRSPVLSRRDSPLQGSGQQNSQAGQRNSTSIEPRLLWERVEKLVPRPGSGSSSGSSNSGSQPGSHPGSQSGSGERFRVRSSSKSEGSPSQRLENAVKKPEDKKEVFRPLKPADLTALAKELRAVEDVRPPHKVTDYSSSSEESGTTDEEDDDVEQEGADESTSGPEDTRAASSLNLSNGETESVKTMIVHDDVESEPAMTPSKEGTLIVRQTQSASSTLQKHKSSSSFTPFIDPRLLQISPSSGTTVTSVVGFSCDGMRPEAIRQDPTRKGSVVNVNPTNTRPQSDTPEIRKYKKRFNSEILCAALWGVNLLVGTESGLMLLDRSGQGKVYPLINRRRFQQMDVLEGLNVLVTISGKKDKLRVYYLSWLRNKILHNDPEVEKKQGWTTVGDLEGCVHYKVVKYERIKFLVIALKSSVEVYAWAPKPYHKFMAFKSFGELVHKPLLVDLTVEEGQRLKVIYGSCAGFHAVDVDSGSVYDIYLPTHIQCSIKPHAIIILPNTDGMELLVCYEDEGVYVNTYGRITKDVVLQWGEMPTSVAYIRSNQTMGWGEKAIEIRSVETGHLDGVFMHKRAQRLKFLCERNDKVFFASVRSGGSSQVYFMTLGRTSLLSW
Chain of Mast/stem cell growth factor receptor Kit (Homo sapiens), P10721 [D816H] (P10721 whole entry D816H): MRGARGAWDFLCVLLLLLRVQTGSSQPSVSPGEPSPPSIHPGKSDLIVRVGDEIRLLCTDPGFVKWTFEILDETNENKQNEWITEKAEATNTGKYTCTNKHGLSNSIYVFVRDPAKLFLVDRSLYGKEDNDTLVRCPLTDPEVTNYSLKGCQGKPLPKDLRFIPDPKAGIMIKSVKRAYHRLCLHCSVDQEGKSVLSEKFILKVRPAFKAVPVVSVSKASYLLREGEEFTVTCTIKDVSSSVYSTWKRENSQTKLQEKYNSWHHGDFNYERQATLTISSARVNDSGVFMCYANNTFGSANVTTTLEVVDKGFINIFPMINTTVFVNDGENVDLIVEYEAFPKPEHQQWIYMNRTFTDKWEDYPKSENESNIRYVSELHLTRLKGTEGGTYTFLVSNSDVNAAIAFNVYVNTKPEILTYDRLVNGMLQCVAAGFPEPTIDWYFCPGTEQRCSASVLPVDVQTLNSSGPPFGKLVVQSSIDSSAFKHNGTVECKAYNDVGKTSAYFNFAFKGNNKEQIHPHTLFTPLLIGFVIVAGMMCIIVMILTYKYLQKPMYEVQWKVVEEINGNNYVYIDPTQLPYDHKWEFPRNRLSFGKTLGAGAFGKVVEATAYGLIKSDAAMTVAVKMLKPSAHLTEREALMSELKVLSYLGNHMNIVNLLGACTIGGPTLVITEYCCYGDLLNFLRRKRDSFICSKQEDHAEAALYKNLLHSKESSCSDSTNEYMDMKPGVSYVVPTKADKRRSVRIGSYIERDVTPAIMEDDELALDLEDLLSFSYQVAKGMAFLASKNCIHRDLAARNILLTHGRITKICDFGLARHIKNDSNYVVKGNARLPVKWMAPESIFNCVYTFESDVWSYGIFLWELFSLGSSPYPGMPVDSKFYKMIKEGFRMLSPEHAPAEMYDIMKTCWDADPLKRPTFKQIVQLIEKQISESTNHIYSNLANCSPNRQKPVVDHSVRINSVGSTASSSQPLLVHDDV
Chain of Alpha-1B adrenergic receptor (Homo sapiens) (P35368 whole entry): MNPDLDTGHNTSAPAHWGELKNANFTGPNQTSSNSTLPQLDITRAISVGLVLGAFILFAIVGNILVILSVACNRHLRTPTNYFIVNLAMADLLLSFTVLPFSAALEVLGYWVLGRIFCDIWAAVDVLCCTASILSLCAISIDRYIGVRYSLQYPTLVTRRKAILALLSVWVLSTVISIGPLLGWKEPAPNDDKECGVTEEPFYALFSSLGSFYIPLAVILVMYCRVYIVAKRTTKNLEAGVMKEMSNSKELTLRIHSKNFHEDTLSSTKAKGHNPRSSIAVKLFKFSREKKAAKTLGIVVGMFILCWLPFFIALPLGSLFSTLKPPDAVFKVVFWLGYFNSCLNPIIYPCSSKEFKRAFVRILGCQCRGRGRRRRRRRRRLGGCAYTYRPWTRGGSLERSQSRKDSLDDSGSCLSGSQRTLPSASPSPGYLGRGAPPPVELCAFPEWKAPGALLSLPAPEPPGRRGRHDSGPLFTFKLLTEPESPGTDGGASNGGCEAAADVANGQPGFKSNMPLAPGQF
Chain of Dual specificity protein kinase TTK (Homo sapiens) (P33981 whole entry): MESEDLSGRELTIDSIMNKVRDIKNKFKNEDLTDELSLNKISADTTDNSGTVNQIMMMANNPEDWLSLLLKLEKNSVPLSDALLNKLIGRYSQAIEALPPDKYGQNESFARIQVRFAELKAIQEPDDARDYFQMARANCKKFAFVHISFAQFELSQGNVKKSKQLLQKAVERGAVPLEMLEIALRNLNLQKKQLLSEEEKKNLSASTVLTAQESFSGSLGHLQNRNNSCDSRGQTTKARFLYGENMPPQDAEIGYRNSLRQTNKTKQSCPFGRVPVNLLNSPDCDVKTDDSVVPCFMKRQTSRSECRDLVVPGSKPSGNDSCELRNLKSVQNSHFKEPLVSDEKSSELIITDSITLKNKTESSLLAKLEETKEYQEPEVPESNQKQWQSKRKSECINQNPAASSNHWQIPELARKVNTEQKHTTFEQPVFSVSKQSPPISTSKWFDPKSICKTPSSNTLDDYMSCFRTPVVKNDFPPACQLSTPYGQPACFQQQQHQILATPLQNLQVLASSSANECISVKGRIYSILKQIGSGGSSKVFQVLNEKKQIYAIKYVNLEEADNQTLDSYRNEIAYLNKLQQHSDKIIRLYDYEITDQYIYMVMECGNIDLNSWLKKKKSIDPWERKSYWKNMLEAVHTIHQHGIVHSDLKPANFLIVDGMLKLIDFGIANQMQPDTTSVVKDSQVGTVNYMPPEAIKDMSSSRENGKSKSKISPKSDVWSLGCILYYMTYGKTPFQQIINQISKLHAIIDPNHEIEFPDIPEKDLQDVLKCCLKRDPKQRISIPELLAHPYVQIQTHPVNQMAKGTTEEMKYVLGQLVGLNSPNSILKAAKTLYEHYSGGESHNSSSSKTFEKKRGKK
Chain of Bone morphogenetic protein receptor type-2 (Homo sapiens) (Q13873 whole entry): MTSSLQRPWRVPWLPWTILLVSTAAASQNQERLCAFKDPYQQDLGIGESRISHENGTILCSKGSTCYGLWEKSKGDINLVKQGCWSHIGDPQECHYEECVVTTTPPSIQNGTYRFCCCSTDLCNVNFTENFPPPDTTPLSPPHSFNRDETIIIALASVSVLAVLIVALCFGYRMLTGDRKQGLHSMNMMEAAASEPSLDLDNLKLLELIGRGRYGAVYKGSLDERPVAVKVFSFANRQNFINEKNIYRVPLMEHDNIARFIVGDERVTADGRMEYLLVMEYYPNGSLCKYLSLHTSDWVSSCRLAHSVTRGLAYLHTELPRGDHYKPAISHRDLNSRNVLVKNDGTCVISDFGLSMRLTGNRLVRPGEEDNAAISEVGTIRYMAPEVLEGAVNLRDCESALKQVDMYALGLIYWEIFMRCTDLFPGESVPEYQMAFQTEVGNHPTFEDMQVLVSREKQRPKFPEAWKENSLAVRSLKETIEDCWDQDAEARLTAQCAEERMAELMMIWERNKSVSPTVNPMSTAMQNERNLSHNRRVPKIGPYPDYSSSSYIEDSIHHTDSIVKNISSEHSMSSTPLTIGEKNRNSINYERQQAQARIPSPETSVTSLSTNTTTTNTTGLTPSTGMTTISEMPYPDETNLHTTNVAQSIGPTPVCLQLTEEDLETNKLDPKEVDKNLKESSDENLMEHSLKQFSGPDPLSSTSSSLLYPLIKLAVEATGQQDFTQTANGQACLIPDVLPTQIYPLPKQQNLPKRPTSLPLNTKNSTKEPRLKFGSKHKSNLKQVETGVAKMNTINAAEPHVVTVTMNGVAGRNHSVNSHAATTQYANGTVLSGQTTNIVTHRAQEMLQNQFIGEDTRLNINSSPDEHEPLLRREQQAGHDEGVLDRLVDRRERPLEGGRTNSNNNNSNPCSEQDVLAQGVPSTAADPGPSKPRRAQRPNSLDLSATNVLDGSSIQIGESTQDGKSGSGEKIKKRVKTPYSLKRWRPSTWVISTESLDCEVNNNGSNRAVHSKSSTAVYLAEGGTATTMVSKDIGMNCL
Chain of Delta-type opioid receptor (Homo sapiens) (P41143 whole entry): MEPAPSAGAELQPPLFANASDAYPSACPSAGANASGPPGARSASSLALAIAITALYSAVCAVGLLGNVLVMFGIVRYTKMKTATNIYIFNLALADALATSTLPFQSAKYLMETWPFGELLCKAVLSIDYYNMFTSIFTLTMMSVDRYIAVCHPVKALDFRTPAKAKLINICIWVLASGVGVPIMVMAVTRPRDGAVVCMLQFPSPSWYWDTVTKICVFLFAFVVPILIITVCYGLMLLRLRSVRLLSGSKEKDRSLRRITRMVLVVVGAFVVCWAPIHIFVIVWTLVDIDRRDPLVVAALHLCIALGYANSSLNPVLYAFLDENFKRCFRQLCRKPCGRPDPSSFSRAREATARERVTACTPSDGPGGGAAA
Chain of Mast/stem cell growth factor receptor Kit (Homo sapiens), P10721 [L576P] (P10721 whole entry L576P): as the sequence (P10721 whole entry D816H) above, with L576P, H816D counted along it

## CCCCN(CCCC)C(=O)CN1C[C@@H](c2cc(OC)c3c(c2)OCO3)[C@H](C(=O)O)[C@H]1CC(C)(C)CCC [A-545]
[1]
  residual activity: 100%
[2]
  residual activity: 99.4%
[3]
  residual activity: 95.4%
[4]
  residual activity: 86.7%
[5]
  residual activity: 100%
[6]
  residual activity: 100%
[7]
  residual activity: 87.2%
[8]
  residual activity: 98.3%
[9]
  residual activity: 100%
[10]
  residual activity: 100%
[11]
  residual activity: 82.8%
[12]
  residual activity: 89.9%
[13]
  residual activity: 88.4%
[14]
  residual activity: 100%
[15]
  residual activity: 97.4%
[16]
  residual activity: 96.1%
[17]
  residual activity: 80.6%
[18]
  residual activity: 100%
[19]
  residual activity: 78.5%
[20]
  residual activity: 100%
[21]
  residual activity: 75.2%
[22]
  residual activity: 100%
[23]
  residual activity: 88.9%
[24]
  residual activity: 100%
[25]
  residual activity: 72.9%
[26]
  residual activity: 99.2%
[27]
  residual activity: 93.8%
[28]
  residual activity: 91%
[29]
  residual activity: 87%
[30]
  residual activity: 81.4%
[31]
  residual activity: 100%
[32]
  residual activity: 93.4%
[33]
  residual activity: 100%
[34]
  residual activity: 99.7%
[35]
  residual activity: 96.6%
[36]
  residual activity: 100%
[37]
  residual activity: 90.6%
[38]
  residual activity: 100%
[39]
  residual activity: 98.6%
[40]
  residual activity: 100%
[41]
  inhibition: -2.98%
[42]
  inhibition: 41.1%
[43]
  inhibition: 8.46%
[44]
  inhibition: 6.5%
[45]
  inhibition: 28.4%

## CCCCN(CCCC)C(=O)CN1C[C@H](c2cc(OC)c3c(c2)OCO3)[C@@H](C(=O)O)[C@@H]1CC(C)(C)CCC [ABT-546]
[1]
  residual activity: 96.1%
[2]
  residual activity: 100%
[3]
  residual activity: 100%
[4]
  residual activity: 80%
[5]
  residual activity: 100%
[6]
  residual activity: 100%
[7]
  residual activity: 100%
[8]
  residual activity: 100%
[9]
  residual activity: 100%
[10]
  residual activity: 43%
[11]
  residual activity: 100%
[12]
  residual activity: 72.1%
[13]
  residual activity: 94.3%
[14]
  residual activity: 100%
[15]
  residual activity: 46.4%
[16]
  residual activity: 100%
[17]
  residual activity: 64.2%
[18]
  residual activity: 100%
[19]
  residual activity: 67.3%
[20]
  residual activity: 100%
[21]
  residual activity: 100%
[22]
  residual activity: 54.4%
[23]
  residual activity: 100%
[24]
  residual activity: 100%
[25]
  residual activity: 99.1%
[26]
  residual activity: 94.2%
[27]
  residual activity: 100%
[28]
  residual activity: 70%
[29]
  residual activity: 100%
[30]
  residual activity: 100%
[31]
  residual activity: 65.9%
[32]
  residual activity: 100%
[33]
  residual activity: 100%
[34]
  residual activity: 68.6%
[35]
  residual activity: 76.4%
[36]
  residual activity: 75.7%
[37]
  residual activity: 69.6%
[38]
  residual activity: 100%
[39]
  residual activity: 100%
[40]
  residual activity: 100%
[41]
  inhibition: 2.64%
[42]
  inhibition: 25.6%
[43]
  inhibition: 24.3%
[44]
  inhibition: -7.9%
[45]
  inhibition: 2.71%
